Test results reported in PubChem BioAssay (NCI).
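In this assay, cells in 96-well plates receive the compound at five concentrations for 48 hours. Endpoints are linearly interpolated between the surrounding concentrations. Here, GI50 denotes the concentration required for 50% inhibition of growth. Definition used: TGI = concentration required for complete inhibition of growth.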

Assays:
Assay in all cases: inhibition of tumour cell growth, NCI panel, 48 h
HCC-2998 colon = system: HCC-2998 colon
EKVX NSCLC = system: EKVX NSCLC
RPMI-8226 leukemia = system: RPMI-8226 leukemia
SNB-19 CNS = system: SNB-19 CNS
SK-MEL-5 melanoma = system: SK-MEL-5 melanoma
PC-3 prostate = system: PC-3 prostate
SN12C renal = system: SN12C renal
MDA-MB-435 = system: MDA-MB-435
A549 NSCLC = system: A549 NSCLC
HCT-15 colon = system: HCT-15 colon
UO-31 renal = system: UO-31 renal
OVCAR-5 ovarian = system: OVCAR-5 ovarian
HS 578T breast = system: HS 578T breast
HCT-116 colon = system: HCT-116 colon
KM12 colon = system: KM12 colon
OVCAR-8 ovarian = system: OVCAR-8 ovarian
DU-145 prostate = system: DU-145 prostate
HOP-62 NSCLC = system: HOP-62 NSCLC
ACHN renal = system: ACHN renal
SR leukemia = system: SR leukemia
NCI/ADR-RES ovarian = system: NCI/ADR-RES ovarian
T-47D breast = system: T-47D breast
NCI-H226 lung = system: NCI-H226 lung
MOLT-4 leukemia = system: MOLT-4 leukemia
COLO 205 colon = system: COLO 205 colon
U251 CNS = system: U251 CNS
K-562 leukemia = system: K-562 leukemia
NCI-H522 lung = system: NCI-H522 lung
MCF7 breast = system: MCF7 breast
SF-295 CNS = system: SF-295 CNS
SF-268 CNS = system: SF-268 CNS
OVCAR-3 ovarian = system: OVCAR-3 ovarian
UACC-257 melanoma = system: UACC-257 melanoma
NCI-H23 lung = system: NCI-H23 lung
BT-549 breast = system: BT-549 breast
NCI-H460 lung = system: NCI-H460 lung
SK-OV-3 ovarian = system: SK-OV-3 ovarian
HOP-92 NSCLC = system: HOP-92 NSCLC
M14 melanoma = system: M14 melanoma
A498 renal = system: A498 renal
SW-620 colon = system: SW-620 colon
CAKI-1 renal = system: CAKI-1 renal
SF-539 CNS = system: SF-539 CNS
IGROV1 ovarian = system: IGROV1 ovarian
UACC-62 melanoma = system: UACC-62 melanoma
MALME-3M melanoma = system: MALME-3M melanoma
TK-10 renal = system: TK-10 renal
HT29 colon = system: HT29 colon
LOX IMVI melanoma = system: LOX IMVI melanoma
SK-MEL-28 melanoma = system: SK-MEL-28 melanoma
MDA-MB-231 breast = system: MDA-MB-231 breast
OVCAR-4 ovarian = system: OVCAR-4 ovarian
SK-MEL-2 melanoma = system: SK-MEL-2 melanoma
786-0 renal = system: 786-0 renal
SNB-75 CNS = system: SNB-75 CNS
CCRF-CEM leukemia = system: CCRF-CEM leukemia
RXF 393 renal = system: RXF 393 renal

Compound O=S(=O)(NC1CC2CCC1C2)c1ccc2c(c1)C(=NO)c1cc(S(=O)(=O)NC3CC4CCC3C4)ccc1-2 (stereo unspecified) has a GI50 (HCC-2998 colon) of 3.75 µM, a TGI (HCC-2998 colon) of over 100 µM and a GI50 (EKVX NSCLC) of 0.0521 µM. It also gave a TGI (EKVX NSCLC) of 0.201 µM, a GI50 (RPMI-8226 leukemia) of 0.238 µM and a TGI (RPMI-8226 leukemia) of over 100 µM. For the same compound, the GI50 (SNB-19 CNS) was 28.9 µM, the TGI (SNB-19 CNS) was over 100 µM and the GI50 (SK-MEL-5 melanoma) was over 100 µM. It also gave a TGI (SK-MEL-5 melanoma) of over 100 µM, a GI50 (PC-3 prostate) of 1.86 µM and a TGI (PC-3 prostate) of 18.3 µM. For the same compound, the GI50 (SN12C renal) was 0.883 µM, the TGI (SN12C renal) was 25.8 µM and the GI50 (MDA-MB-435) was 1.86 µM. For the same compound, the TGI (MDA-MB-435) was over 100 µM, the GI50 (A549 NSCLC) was 1.83 µM and the TGI (A549 NSCLC) was 22.4 µM. For the same compound, the GI50 (HCT-15 colon) was 0.592 µM, the TGI (HCT-15 colon) was over 100 µM and the GI50 (UO-31 renal) was 0.0186 µM. The TGI (UO-31 renal) was 0.0376 µM, the GI50 (OVCAR-5 ovarian) was 0.453 µM and the TGI (OVCAR-5 ovarian) was 40.5 µM. The GI50 (HS 578T breast) was 31.6 µM, the TGI (HS 578T breast) was over 100 µM and the GI50 (HCT-116 colon) was 0.655 µM. The TGI (HCT-116 colon) was over 100 µM, the GI50 (KM12 colon) was 0.162 µM and the GI50 (OVCAR-8 ovarian) was 0.139 µM. It also gave a TGI (OVCAR-8 ovarian) of 2.29 µM, a GI50 (DU-145 prostate) of 0.348 µM and a TGI (DU-145 prostate) of 8.8 µM. For the same compound, the GI50 (HOP-62 NSCLC) was 0.268 µM, the TGI (HOP-62 NSCLC) was 4.95 µM and the GI50 (ACHN renal) was 0.0742 µM. It also gave a TGI (ACHN renal) of 0.986 µM, a GI50 (SR leukemia) of 0.0179 µM and a TGI (SR leukemia) of 0.0563 µM. It also gave a GI50 (NCI/ADR-RES ovarian) of 7 µM, a TGI (NCI/ADR-RES ovarian) of over 100 µM and a GI50 (T-47D breast) of 1.27 µM. The TGI (T-47D breast) was 5.57 µM, the GI50 (NCI-H226 lung) was 22.2 µM and the TGI (NCI-H226 lung) was over 100 µM. It also gave a GI50 (MOLT-4 leukemia) of 13.3 µM, a TGI (MOLT-4 leukemia) of over 100 µM and a GI50 (COLO 205 colon) of 23.3 µM. It also gave a TGI (COLO 205 colon) of over 100 µM, a GI50 (U251 CNS) of 0.371 µM and a TGI (U251 CNS) of 3.67 µM. It also gave a GI50 (K-562 leukemia) of 0.444 µM, a TGI (K-562 leukemia) of over 100 µM and a GI50 (NCI-H522 lung) of 0.16 µM. It also gave a TGI (NCI-H522 lung) of 1.02 µM, a GI50 (MCF7 breast) of 0.51 µM and a TGI (MCF7 breast) of over 100 µM. For the same compound, the GI50 (SF-295 CNS) was 2.31 µM, the TGI (SF-295 CNS) was 8.91 µM and the GI50 (SF-268 CNS) was 2.38 µM. For the same compound, the TGI (SF-268 CNS) was 99.5 µM, the GI50 (OVCAR-3 ovarian) was 0.598 µM and the TGI (OVCAR-3 ovarian) was over 100 µM. For the same compound, the GI50 (UACC-257 melanoma) was over 100 µM, the TGI (UACC-257 melanoma) was over 100 µM and the GI50 (NCI-H23 lung) was 0.0394 µM. It also gave a TGI (NCI-H23 lung) of 0.182 µM, a GI50 (BT-549 breast) of 1.92 µM and a TGI (BT-549 breast) of over 100 µM. The GI50 (NCI-H460 lung) was 0.437 µM, the TGI (NCI-H460 lung) was 14.2 µM and the GI50 (SK-OV-3 ovarian) was 23.2 µM. It also gave a TGI (SK-OV-3 ovarian) of over 86.7 µM, a GI50 (HOP-92 NSCLC) of 0.152 µM and a TGI (HOP-92 NSCLC) of 0.426 µM. For the same compound, the GI50 (M14 melanoma) was 4.42 µM, the TGI (M14 melanoma) was over 100 µM and the GI50 (A498 renal) was over 100 µM. The TGI (A498 renal) was over 100 µM, the GI50 (SW-620 colon) was 0.527 µM and the TGI (SW-620 colon) was 3.87 µM. The GI50 (CAKI-1 renal) was 0.158 µM, the TGI (CAKI-1 renal) was 0.344 µM and the GI50 (SF-539 CNS) was 0.182 µM. The TGI (SF-539 CNS) was 0.396 µM, the GI50 (IGROV1 ovarian) was 0.0262 µM and the TGI (IGROV1 ovarian) was 0.132 µM. The GI50 (UACC-62 melanoma) was 36 µM, the TGI (UACC-62 melanoma) was over 100 µM and the GI50 (MALME-3M melanoma) was 0.0438 µM. The TGI (MALME-3M melanoma) was 0.173 µM, the GI50 (TK-10 renal) was 3.1 µM and the GI50 (HT29 colon) was 0.22 µM. For the same compound, the TGI (HT29 colon) was 3.01 µM, the GI50 (LOX IMVI melanoma) was 0.0182 µM and the TGI (LOX IMVI melanoma) was 0.0371 µM. The GI50 (SK-MEL-28 melanoma) was 60.2 µM, the TGI (SK-MEL-28 melanoma) was over 100 µM and the GI50 (MDA-MB-231 breast) was 0.106 µM. For the same compound, the TGI (MDA-MB-231 breast) was 3.13 µM, the GI50 (OVCAR-4 ovarian) was 0.677 µM and the TGI (OVCAR-4 ovarian) was 3.37 µM. The GI50 (SK-MEL-2 melanoma) was 66.7 µM, the TGI (SK-MEL-2 melanoma) was over 100 µM and the GI50 (786-0 renal) was 0.179 µM. It also gave a TGI (786-0 renal) of 0.326 µM, a TGI (SNB-75 CNS) of over 100 µM and a GI50 (CCRF-CEM leukemia) of 0.0257 µM. The TGI (CCRF-CEM leukemia) was 0.0726 µM, the GI50 (RXF 393 renal) was 0.292 µM and the TGI (RXF 393 renal) was 30.2 µM.
